Results reported in patent publication US20240150377A1, “MODULATORS OF CYSTIC FIBROSIS TRANSMEMBRANE CONDUCTANCE REGULATOR” (VERTEX PHARMACEUTICALS INCORPORATED, priority 2020, published 2024).
Where two headings read alike, the source gives them in different places.

Biological target: T1, CFTR (Homo sapiens, UniProt P13569, DEL508-508)
T1 construct: endogenous in cells; host or cells: primary human bronchial epithelial cells from CF subjects (F508del/MF-HBE), differentiated at air-liquid interface
Test: HBE assay: Ussing chamber assay of CFTR-mediated short-circuit currents
Assay type: cell-based
Conditions: for EC50: read-out: HBE EC50
Outline: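 CFTR-mediated Isc (μA/cm²) equals the peak response to apical 20 μM forskolin minus the residual after a 20 μM each BPO/GlyH-101/CFTR inhibitor 172 cocktail, recorded in Ussing chambers at Vhold 0 mV, 37 °C, pH 7.4, with 30 μM apical amiloride. Cells were F508del/MF HBE cultures preincubated 18-24 h with corrector (concentration range or 10 μM) plus 1 μM ivacaftor in 20% human serum.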

[1] = Table 10, read-out: HBE activity at 10 (μM) (%)
[2] = Table 10, read-out: HBE Max activity (%)
[3] = Table 12, read-out: HBE Max Activity (%)
[4] = Table 12, read-out: HBE Activity at 10 μM (%)
[5] = Table 11, read-out: HBE Activity at 10 μM (%)
[6] = Table 13, read-out: HBE Max Activity (%)
[7] = Table 13, read-out: HBE Activity at 10 μM (%)

T1 sequence (P13569 with tags, fused parts or gaps DEL508-508): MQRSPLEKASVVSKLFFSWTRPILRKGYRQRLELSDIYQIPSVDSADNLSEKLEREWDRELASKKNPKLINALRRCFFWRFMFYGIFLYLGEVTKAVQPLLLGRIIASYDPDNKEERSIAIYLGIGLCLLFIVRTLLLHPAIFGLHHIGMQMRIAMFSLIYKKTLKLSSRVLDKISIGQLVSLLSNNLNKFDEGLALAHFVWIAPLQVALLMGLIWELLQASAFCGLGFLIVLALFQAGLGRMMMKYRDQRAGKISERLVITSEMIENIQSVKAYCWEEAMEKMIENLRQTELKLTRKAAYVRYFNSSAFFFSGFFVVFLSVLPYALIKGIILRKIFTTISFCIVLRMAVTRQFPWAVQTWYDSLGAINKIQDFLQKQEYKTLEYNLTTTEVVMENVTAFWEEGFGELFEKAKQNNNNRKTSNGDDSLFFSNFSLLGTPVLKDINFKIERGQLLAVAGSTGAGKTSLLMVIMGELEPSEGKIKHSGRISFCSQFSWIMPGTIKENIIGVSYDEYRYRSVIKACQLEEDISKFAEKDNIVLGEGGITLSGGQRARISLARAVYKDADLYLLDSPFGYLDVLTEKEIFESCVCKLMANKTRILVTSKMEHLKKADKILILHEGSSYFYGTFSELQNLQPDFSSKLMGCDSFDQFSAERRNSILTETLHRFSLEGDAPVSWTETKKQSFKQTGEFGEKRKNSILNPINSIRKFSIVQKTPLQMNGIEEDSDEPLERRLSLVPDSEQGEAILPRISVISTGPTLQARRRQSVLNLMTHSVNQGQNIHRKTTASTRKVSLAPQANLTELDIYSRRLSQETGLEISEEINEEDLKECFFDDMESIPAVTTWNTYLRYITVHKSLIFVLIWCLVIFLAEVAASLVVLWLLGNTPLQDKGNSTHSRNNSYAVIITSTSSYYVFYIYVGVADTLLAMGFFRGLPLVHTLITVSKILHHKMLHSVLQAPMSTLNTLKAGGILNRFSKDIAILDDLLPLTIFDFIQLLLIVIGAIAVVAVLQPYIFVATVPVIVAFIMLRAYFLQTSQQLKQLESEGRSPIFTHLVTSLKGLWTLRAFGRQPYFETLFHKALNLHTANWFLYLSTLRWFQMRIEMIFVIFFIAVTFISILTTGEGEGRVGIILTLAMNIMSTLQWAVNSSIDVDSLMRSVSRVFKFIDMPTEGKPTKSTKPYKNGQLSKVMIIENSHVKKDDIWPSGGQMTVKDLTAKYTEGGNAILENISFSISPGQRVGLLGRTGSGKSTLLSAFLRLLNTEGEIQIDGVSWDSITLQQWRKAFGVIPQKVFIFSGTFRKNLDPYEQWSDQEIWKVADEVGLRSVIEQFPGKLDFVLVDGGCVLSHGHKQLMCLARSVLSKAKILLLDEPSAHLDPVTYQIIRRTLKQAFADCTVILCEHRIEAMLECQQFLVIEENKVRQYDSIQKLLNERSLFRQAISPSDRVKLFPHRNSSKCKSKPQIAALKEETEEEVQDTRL

| Structure (SMILES) | EC50 (Table 10) | Emax [2] | also measured |
| --- | --- | --- | --- |
| Cc1cccc(C)c1-c1cc2nc(n1)NS(=O)(=O)c1cccc(c1)C(=O)N(C(C)c1ccc(-c3c(C)n[nH]c3C)cc1)[C@H](CC(C)(C)C)CO2 (some centres unmarked) [Compound 294] |  |  | activation at 10 µM [1]: > 60% |
| Cc1cccc(C)c1-c1cc2nc(n1)NS(=O)(=O)c1cccc(c1)C(=O)N(Cc1cccc(Cc3nccs3)c1)[C@H](CC(C)(C)C)CO2 [Compound 295] | < 1 µM | > 60% |  |
| Cc1cccc(C)c1-c1cc2nc(n1)NS(=O)(=O)c1cccc(c1)C(=O)N(Cc1ccc(Cc3nccs3)cc1)[C@H](CC(C)(C)C)CO2 [Compound 296] | < 1 µM | > 60% |  |
| Cc1cccc(C)c1-c1cc2nc(n1)NS(=O)(=O)c1cccc(c1)C(=O)N(Cc1ccc(-c3c[nH]nc3C3CC3)cn1)[C@H](CC(C)(C)C)CO2 [Compound 297] | < 1 µM | > 60% |  |
| Cc1cccc(C)c1-c1cc2nc(n1)NS(=O)(=O)c1cccc(c1)C(=O)N(Cc1ccc(-c3c(C)n[nH]c3C)cn1)[C@H](CC(C)(C)C)CO2 [Compound 298] | 1 to 3 µM | > 60% |  |
| Cc1cccc(C)c1-c1cc2nc(n1)NS(=O)(=O)c1cccc(c1)C(=O)N(Cc1ccc(-c3cn[nH]c3)cn1)[C@H](CC(C)(C)C)CO2 [Compound 299] | < 1 µM | > 60% |  |
| Cc1cccc(C)c1-c1cc2nc(n1)NS(=O)(=O)c1cccc(c1)C(=O)N(Cc1ncccc1-c1c[nH]nc1C1CC1)[C@H](CC(C)(C)C)CO2 [Compound 300] |  |  | activation at 10 µM [1]: > 60% |
| Cc1cccc(C)c1-c1cc2nc(n1)NS(=O)(=O)c1cccc(c1)C(=O)N(Cc1ncccc1-c1c(C)n[nH]c1C)[C@H](CC(C)(C)C)CO2 [Compound 301] | < 1 µM | > 60% |  |
| Cc1cccc(C)c1-c1cc2nc(n1)NS(=O)(=O)c1cccc(c1)C(=O)N(Cc1ccccc1-c1c[nH]nc1C1CC1)[C@H](CC(C)(C)C)CO2 [Compound 303] | < 1 µM | > 60% |  |
| Cc1cccc(C)c1-c1cc2nc(n1)NS(=O)(=O)c1cccc(c1)C(=O)N(Cc1ccccc1-c1c[nH]nc1C(F)(F)F)[C@H](CC(C)(C)C)CO2 [Compound 304] |  |  | activation at 10 µM [1]: > 60% |
| Cc1cccc(C)c1-c1cc2nc(n1)NS(=O)(=O)c1cccc(c1)C(=O)N(Cc1ccccc1-c1csc(OC(C)C)n1)[C@H](CC(C)(C)C)CO2 [Compound 305] |  |  | activation at 10 µM [1]: > 60% |
| Cc1cccc(C)c1-c1cc2nc(n1)NS(=O)(=O)c1cccc(c1)C(=O)N(Cc1ccccc1-c1c(C)n[nH]c1C)[C@H](CC(C)(C)C)CO2 [Compound 306] | < 1 µM | > 60% |  |
| Cc1cccc(C)c1-c1cc2nc(n1)NS(=O)(=O)c1cccc(c1)C(=O)N(Cc1ccccc1-c1c[nH]nc1C)[C@H](CC(C)(C)C)CO2 [Compound 307] |  |  | activation at 10 µM [1]: > 60% |
| Cc1cccc(C)c1-c1cc2nc(n1)NS(=O)(=O)c1cccc(c1)C(=O)N(Cc1cccc(-c3c[nH]nc3C3CC3)c1)[C@H](CC(C)(C)C)CO2 [Compound 308] | < 1 µM | > 60% |  |
| Cc1cccc(C)c1C1CC2NC(N1)NS(=O)(=O)C1CCCC(C1)C(=O)N(Cc1cccc(-c3c[nH]nc3C(C)(C)C)c1)[C@H](CC(C)(C)C)CO2 (some centres unmarked) [Compound 309] |  | > 60% |  |
| Cc1cccc(C)c1-c1cc2nc(n1)NS(=O)(=O)c1cccc(c1)C(=O)N(Cc1cccc(-c3c[nH]nc3C)c1)[C@H](CC(C)(C)C)CO2 [Compound 312] |  |  | activation at 10 µM [1]: > 60% |
| Cc1cccc(C)c1-c1cc2nc(n1)NS(=O)(=O)c1cccc(c1)C(=O)N(Cc1cccc(-c3c(C)n[nH]c3C)c1)[C@H](CC(C)(C)C)CO2 [Compound 313] | < 1 µM | > 60% |  |
| Cc1cccc(C)c1-c1cc2nc(n1)NS(=O)(=O)c1cccc(c1)C(=O)N(Cc1nc(N(C)C)cc(N(C)C)n1)[C@H](CC(C)(C)C)CO2 [Compound 322] |  |  | EC50 (Table 12): < 1 µM; Emax [3]: > 60% |
| Cc1cc(N(C)C(C)C)nc(CN2C(=O)c3cccc(c3)S(=O)(=O)Nc3nc(cc(-c4c(C)cccc4C)n3)OC[C@H]2CC(C)(C)C)n1 [Compound 323] |  |  | activation at 10 µM [4]: > 600% |
| Cc1cc(N(C)C)nc(CN2C(=O)c3cccc(c3)S(=O)(=O)Nc3nc(cc(-c4c(C)cccc4C)n3)OC[C@H]2CC(C)(C)C)n1 [Compound 324] |  |  | activation at 10 µM [4]: > 600% |
| Cc1cccc(C)c1-c1cc2nc(n1)NS(=O)(=O)c1cccc(c1)C(=O)N(Cc1nc(N(C)C)cc(C(F)(F)F)n1)[C@H](CC(C)(C)C)CO2 [Compound 325] |  |  | activation at 10 µM [4]: > 600% |
| Cc1cccc(C)c1-c1cc2nc(n1)NS(=O)(=O)c1cccc(c1)C(=O)N(Cc1nc(N(C)C(C)C)cc(C(F)(F)F)n1)[C@H](CC(C)(C)C)CO2 [Compound 326] |  |  | activation at 10 µM [4]: > 600% |
| Cc1cnc(CN2C(=O)c3cccc(c3)S(=O)(=O)Nc3nc(cc(-c4c(C)cccc4C)n3)OC[C@H]2CC(C)(C)C)nc1N1CCCC1(C)C [Compound 327] |  |  | activation at 10 µM [4]: > 600% |

| Structure (SMILES) | EC50 (Table 10) | Emax [2] | also measured |
| --- | --- | --- | --- |
| Cc1cnc(CN2C(=O)c3cccc(c3)S(=O)(=O)Nc3nc(cc(-c4c(C)cccc4C)n3)OC[C@H]2CC(C)(C)C)nc1N(C)CC(C)(C)C [Compound 328] |  |  | EC50 (Table 12): < 1 µM; Emax [3]: > 60% |
| Cc1cnc(CN2C(=O)c3cccc(c3)S(=O)(=O)Nc3nc(cc(-c4c(C)cccc4C)n3)OC[C@H]2CC(C)(C)C)nc1N(C)C1CCCC1 [Compound 329] |  |  | activation at 10 µM [4]: > 600% |
| Cc1cnc(CN2C(=O)c3cccc(c3)S(=O)(=O)Nc3nc(cc(-c4c(C)cccc4C)n3)OC[C@H]2CC(C)(C)C)nc1N(C)C(C)C [Compound 330] |  |  | activation at 10 µM [4]: > 600% |
| Cc1cccc(C)c1-c1cc2nc(n1)NS(=O)(=O)c1cccc(c1)C(=O)N(Cc1ccc(N3CCOCC3)cn1)C(CC(C)(C)C)CO2 (centres unmarked) [Compound 332] |  |  | activation at 10 µM [5]: < 30% |
| Cc1cccc(O)c1-c1cc2nc(n1)NS(=O)(=O)c1cccc(c1)C(=O)N(Cc1ccc(N3CCOCC3)cn1)[C@H](CC(C)(C)C)CO2 [Compound 333] |  |  | activation at 10 µM [5]: 30 to 60% |
| Cc1cccc(C)c1-c1cc2nc(n1)NS(=O)(=O)c1cccc(c1)C(=O)N(Cc1cccc(OC(C)C)n1)[C@H](CC(C)(C)C)CO2 [Compound 370] |  |  | EC50 (Table 13): < 1 µM; Emax [6]: > 60% |
| Cc1cccc(C)c1-c1cc2nc(n1)NS(=O)(=O)c1cccc(c1)C(=O)N(Cc1nc(N(C)CC(C)(C)C)ccc1F)[C@H](CC(C)(C)C)CO2 [Compound 371] |  |  | EC50 (Table 13): < 1 µM; Emax [6]: > 60% |
| Cc1cccc(C)c1-c1cc2nc(n1)NS(=O)(=O)c1cccc(c1)C(=O)N(Cc1nc(Br)ccc1F)[C@H](CC(C)(C)C)CO2 [Compound 372] |  |  | activation at 10 µM [7]: > 600% |
| Cc1cccc(C)c1-c1cc2nc(n1)NS(=O)(=O)c1cccc(c1)C(=O)N(Cc1cccnc1N1CCOCC1)[C@H](CC(C)(C)C)CO2 [Compound 374] | < 1 µM | > 60% |  |
| Cc1cccc(C)c1-c1cc2nc(n1)NS(=O)(=O)c1cccc(c1)C(=O)N(Cc1cc(N3CCOCC3)ccn1)[C@H](CC(C)(C)C)CO2 [Compound 375] | < 1 µM | > 60% |  |
| Cc1cccc(C)c1-c1cc2nc(n1)NS(=O)(=O)c1cccc(c1)C(=O)N(Cc1cnccc1N1CCOCC1)[C@H](CC(C)(C)C)CO2 [Compound 376] | < 1 µM | > 60% |  |
| Cc1cccc(C)c1-c1cc2nc(n1)NS(=O)(=O)c1cccc(c1)C(=O)N(Cc1ncccc1N1CCCCC1)[C@H](CC(C)(C)C)CO2 [Compound 377] | < 1 µM | > 60% |  |
| COCCNc1cccnc1CN1C(=O)c2cccc(c2)S(=O)(=O)Nc2nc(cc(-c3c(C)cccc3C)n2)OC[C@H]1CC(C)(C)C [Compound 378] | < 1 µM | > 60% |  |
| Cc1cccc(C)c1-c1cc2nc(n1)NS(=O)(=O)c1cccc(c1)C(=O)N(Cc1ncccc1N(C)C)[C@H](CC(C)(C)C)CO2 [Compound 379] | < 1 µM | > 60% |  |
| Cc1cccc(C)c1-c1cc2nc(n1)NS(=O)(=O)c1cccc(c1)C(=O)N(Cc1ccccn1)[C@H](CC(C)(C)C)CO2 [Compound 381] |  | > 60% |  |
| COc1cccnc1CN1C(=O)c2cccc(c2)S(=O)(=O)Nc2nc(cc(-c3c(C)cccc3C)n2)OC[C@H]1CC(C)(C)C [Compound 382] | < 1 µM | > 60% |  |
| Cc1cccc(C)c1-c1cc2nc(n1)NS(=O)(=O)c1cccc(c1)C(=O)N(Cc1cccc(N3CCOCC3)n1)[C@H](CC(C)(C)C)CO2 [Compound 384] | < 1 µM | > 60% |  |
| Cc1cccc(C)c1-c1cc2nc(n1)NS(=O)(=O)c1cccc(c1)C(=O)N(Cc1ccc(C(C)(C)C)cc1O)[C@H](CC(C)(C)C)CO2 [Compound 433] |  |  | activation at 10 µM [7]: > 600% |
| Cc1cccc(C)c1-c1cc2nc(n1)NS(=O)(=O)c1cccc(c1)C(=O)N(Cc1nccc(N(C)C(C3CC3)C3CC3)n1)[C@H](CC(C)(C)C)CO2 [Compound 434] |  |  | activation at 10 µM [7]: > 600% |
| Cc1cccc(C)c1-c1cc2nc(n1)NS(=O)(=O)c1cccc(c1)C(=O)N(Cc1nccc(N(C)C3CCC(C)(C)CC3)n1)[C@H](CC(C)(C)C)CO2 [Compound 435] |  |  | EC50 (Table 13): < 1 µM; Emax [6]: > 60% |
| Cc1cccc(C)c1-c1cc2nc(n1)NS(=O)(=O)c1cccc(c1)C(=O)N(Cc1nccc(N(C)C3CC(C)(C)C3)n1)[C@H](CC(C)(C)C)CO2 [Compound 436] |  |  | EC50 (Table 13): < 1 µM; Emax [6]: > 60% |
| Cc1cccc(C)c1-c1cc2nc(n1)NS(=O)(=O)c1cccc(c1)C(=O)N(Cc1cncc(N(C)C3CCC34CCC4)n1)[C@H](CC(C)(C)C)CO2 (some centres unmarked) [Compound 437] |  |  | EC50 (Table 12): < 1 µM; Emax [3]: > 60% |
| Cc1cccc(C)c1-c1cc2nc(n1)NS(=O)(=O)c1cccc(c1)C(=O)N(Cc1cncc(N(C)C3CCC34CCC4)n1)[C@H](CC(C)(C)C)CO2 (some centres unmarked) [Compound 438] |  |  | EC50 (Table 12): < 1 µM |
